# Literature values in PMC9653995, “New Positive TRPC6 Modulator Penetrates Blood–Brain Barrier, Eliminates Synaptic Deficiency and Restores Memory Deficit in 5xFAD Mice” (International Journal of Molecular Sciences, 2022).
# Tested on: TRPC3
# Settings: cited from earlier work
compound,measurement,value
"O=C(c1cc2c(s1)CCCCC2)N1CCC(n2c(=O)[nH]c3ccccc32)CC1 [GSK1702934A, reference compound]",activation of TRPC3,activate TRPC3
